Laboratory results taken from ChEMBL document CHEMBL5678809, “Preclinical characterization of GLPG0634, a selective inhibitor of JAK1, for the treatment of inflammatory diseases” (J Immunol, 2013).
Active and inactive are the calls of the source. The rule behind the calls is not given here.

Experiments:
[1] = target: Receptor-type tyrosine-protein kinase FLT3 (Homo sapiens, UniProt P36888); test: Inhibition of Flt3 (unknown origin)
[2] = Half life in CD-1 mouse at 1 mg/kg, iv measured upto 8 hrs by LC-MS analysis; type: ADME, organism-based; conditions: in vivo
[3] = target: Myotonin-protein kinase (Homo sapiens) (UniProt Q09013); test: Inhibition of DMPK (unknown origin) at 1 uM relative to control
[4] = target: Calcium/calmodulin-dependent protein kinase type 1 (Homo sapiens) (UniProt Q14012); test: Inhibition of CaMK1 (unknown origin) at 1 uM relative to control
[5] = Tmax in Sprague-Dawley rat at 5 mg/kg, po measured upto 24 hrs by LC-MS analysis; type: ADME, organism-based; conditions: in vivo
[6] = Half life in Sprague-Dawley rat at 5 mg/kg, po measured upto 24 hrs by LC-MS analysis; type: ADME, organism-based; conditions: in vivo
[7] = target: Vascular endothelial growth factor receptor 2 (Homo sapiens) (UniProt P35968); test: Inhibition of KDR (unknown origin) at 1 uM relative to control
Sequence of Vascular endothelial growth factor receptor 2 (Homo sapiens) (P35968 whole entry): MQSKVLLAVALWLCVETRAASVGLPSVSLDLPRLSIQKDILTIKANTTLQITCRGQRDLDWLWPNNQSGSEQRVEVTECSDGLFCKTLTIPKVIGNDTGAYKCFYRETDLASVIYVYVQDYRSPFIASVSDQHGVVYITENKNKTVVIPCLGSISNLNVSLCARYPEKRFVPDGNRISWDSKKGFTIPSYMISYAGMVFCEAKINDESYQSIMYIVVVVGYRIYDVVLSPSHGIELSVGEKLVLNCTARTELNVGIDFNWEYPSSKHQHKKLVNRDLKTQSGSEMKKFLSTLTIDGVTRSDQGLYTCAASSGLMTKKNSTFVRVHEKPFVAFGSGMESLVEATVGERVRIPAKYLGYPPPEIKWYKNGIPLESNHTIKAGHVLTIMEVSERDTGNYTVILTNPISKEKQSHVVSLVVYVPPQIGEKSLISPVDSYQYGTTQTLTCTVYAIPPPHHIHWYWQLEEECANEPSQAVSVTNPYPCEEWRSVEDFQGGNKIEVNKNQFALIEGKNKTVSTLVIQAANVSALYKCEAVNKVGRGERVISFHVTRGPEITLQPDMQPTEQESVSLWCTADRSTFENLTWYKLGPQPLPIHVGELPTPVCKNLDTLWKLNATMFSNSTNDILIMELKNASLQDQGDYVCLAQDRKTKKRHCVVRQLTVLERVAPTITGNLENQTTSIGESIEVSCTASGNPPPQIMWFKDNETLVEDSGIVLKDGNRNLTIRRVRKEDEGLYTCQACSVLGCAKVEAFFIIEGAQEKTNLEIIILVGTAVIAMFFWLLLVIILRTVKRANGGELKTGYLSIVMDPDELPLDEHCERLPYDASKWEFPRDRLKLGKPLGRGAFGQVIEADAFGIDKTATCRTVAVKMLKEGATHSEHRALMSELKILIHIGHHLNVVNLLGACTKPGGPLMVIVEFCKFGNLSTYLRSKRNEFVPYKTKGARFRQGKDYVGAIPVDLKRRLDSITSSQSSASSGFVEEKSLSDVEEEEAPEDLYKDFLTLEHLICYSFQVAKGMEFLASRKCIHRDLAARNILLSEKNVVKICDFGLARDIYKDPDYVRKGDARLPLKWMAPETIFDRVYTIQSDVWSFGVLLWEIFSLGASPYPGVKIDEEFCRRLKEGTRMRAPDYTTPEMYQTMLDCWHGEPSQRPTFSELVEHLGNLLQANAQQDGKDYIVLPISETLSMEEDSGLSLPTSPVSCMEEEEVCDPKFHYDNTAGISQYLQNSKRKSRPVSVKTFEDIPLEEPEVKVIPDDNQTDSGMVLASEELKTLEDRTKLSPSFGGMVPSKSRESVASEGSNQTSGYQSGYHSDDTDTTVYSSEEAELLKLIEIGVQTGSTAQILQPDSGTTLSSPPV

Mus musculus [8] = test: Antiarthritic activity against collagen-induced arthritis DBA/1J mouse model assessed as reduction in MX2 expression in paw at 50 mg/kg, po measured for 2 weeks by RT-PCR analysis; type: functional, organism-based
Mus musculus [9] = test: Antiarthritic activity against collagen-induced arthritis DBA/1J mouse model assessed as reduction in MMP13 expression at 50 mg/kg, po measured for 4 hrs; type: functional, organism-based
Rattus norvegicus = test: Antiarthritic activity against collagen-induced arthritis Dark Agouti rat model assessed as reduction in bone degradation by measuring larsen score administered 3 times a week and measured on day 7 by X-ray analysis; type: functional, organism-based; conditions: dose 3.0 mg/kg, time 7.0 day
[10] = target: Tyrosine-protein kinase Fer (Homo sapiens) (UniProt P16591); test: Inhibition of Fer (unknown origin) at 1 uM relative to control
Mus musculus [11] = test: Antiarthritic activity against collagen-induced arthritis DBA/1J mouse model assessed as reduction in MMP3 expression at 50 mg/kg, po measured for 4 hrs; type: functional, organism-based
Homo sapiens = organism: Homo sapiens; test: Inhibition of PKB (unknown origin) at 1 uM relative to control
Mus musculus [12] = test: Antiarthritic activity against collagen-induced arthritis DBA/1J mouse model assessed as MDC level in serum at 50 mg/kg, po measured for 4 hrs by luminex analysis (reference value: 463.8 +/- 32.7 ng/ml); type: functional
RPMI-8226 [13] = test: Inhibition of human […] cell differentiation assessed as effect on IL-4 mRNA expression at 0.1 to 1 uM by RT-PCR analysis; type: functional, cell-based; conditions: dose 0.1-1 µM
[14] = target: SRSF protein kinase 3 (Homo sapiens) (UniProt Q9UPE1); test: Inhibition of MSSK1 (unknown origin) at 1 uM relative to control
Sequence of SRSF protein kinase 3 (Homo sapiens) (Q9UPE1 whole entry): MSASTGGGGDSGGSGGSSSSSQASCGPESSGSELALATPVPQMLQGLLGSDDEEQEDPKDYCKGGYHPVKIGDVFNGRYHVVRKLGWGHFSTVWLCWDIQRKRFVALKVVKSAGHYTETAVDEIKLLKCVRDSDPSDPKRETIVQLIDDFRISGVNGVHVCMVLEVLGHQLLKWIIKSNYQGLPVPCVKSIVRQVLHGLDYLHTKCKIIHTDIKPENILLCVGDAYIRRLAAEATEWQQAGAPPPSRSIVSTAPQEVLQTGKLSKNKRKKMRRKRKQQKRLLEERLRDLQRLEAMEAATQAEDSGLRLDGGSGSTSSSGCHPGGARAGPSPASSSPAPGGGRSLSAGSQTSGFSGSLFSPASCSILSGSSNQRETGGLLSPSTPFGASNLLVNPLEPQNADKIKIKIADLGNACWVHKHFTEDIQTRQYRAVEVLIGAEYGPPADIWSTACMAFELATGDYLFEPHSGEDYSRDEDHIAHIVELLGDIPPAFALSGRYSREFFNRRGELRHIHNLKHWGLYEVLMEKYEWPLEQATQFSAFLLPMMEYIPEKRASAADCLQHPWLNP

[15] = AUC (0 to 24 hrs) in CD-1 mouse at 1 mg/kg, iv measured upto 8 hrs by LC-MS analysis; type: ADME, organism-based; conditions: in vivo
[16] = target: Serine/threonine-protein kinase D1 (Homo sapiens) (UniProt Q15139); test: Inhibition of PKC-mu (unknown origin) at 1 uM relative to control
[17] = Clearance in CD-1 mouse at 1 mg/kg, iv measured upto 8 hrs by LC-MS analysis; type: ADME, organism-based; conditions: in vivo
[18] = target: Vascular endothelial growth factor receptor 1 (Homo sapiens, UniProt P17948); test: Inhibition of Flt1 (unknown origin)
[19] = target: Serine/threonine-protein kinase WNK2 (Homo sapiens) (UniProt Q9Y3S1); test: Inhibition of WNK2 (unknown origin) at 1 uM relative to control
Mus musculus [20] = test: Antiarthritic activity against collagen-induced arthritis DBA/1J mouse model assessed as MCP-3 level in serum at 50 mg/kg, po measured for 4 hrs by luminex analysis (reference value: 224 +/- 15.3 ng/ml); type: functional
[21] = target: Protein-tyrosine kinase 6 (Homo sapiens) (UniProt Q13882); test: Inhibition of BRK (unknown origin) at 1 uM relative to control
Sequence of Protein-tyrosine kinase 6 (Homo sapiens) (Q13882 whole entry, looked up): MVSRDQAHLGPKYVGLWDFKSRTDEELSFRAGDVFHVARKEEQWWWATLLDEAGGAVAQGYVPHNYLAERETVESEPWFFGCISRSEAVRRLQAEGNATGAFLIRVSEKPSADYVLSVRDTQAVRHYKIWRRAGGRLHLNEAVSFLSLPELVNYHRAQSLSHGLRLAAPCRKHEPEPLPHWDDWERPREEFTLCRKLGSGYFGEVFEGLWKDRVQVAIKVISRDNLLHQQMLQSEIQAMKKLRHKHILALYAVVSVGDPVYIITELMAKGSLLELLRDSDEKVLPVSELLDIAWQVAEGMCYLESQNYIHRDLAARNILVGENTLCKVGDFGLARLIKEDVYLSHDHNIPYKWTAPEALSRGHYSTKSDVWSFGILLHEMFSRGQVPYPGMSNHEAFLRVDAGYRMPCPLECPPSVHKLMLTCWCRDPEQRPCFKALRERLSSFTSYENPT

[22] = target: Serine/threonine-protein kinase 33 (Homo sapiens) (UniProt Q9BYT3); test: Inhibition of STK33 (unknown origin) at 1 uM relative to control
[23] = target: Tyrosine-protein kinase Mer (Homo sapiens, UniProt Q12866); test: Inhibition of Mer (unknown origin)
[24] = target: Ephrin type-A receptor 2 (Homo sapiens) (UniProt P29317); test: Inhibition of EphA2 (unknown origin) at 1 uM relative to control
[25] = target: Serine/threonine-protein kinase 24 (Homo sapiens) (UniProt Q9Y6E0); test: Inhibition of MST3 (unknown origin) at 1 uM relative to control
Sequence of Serine/threonine-protein kinase 24 (Homo sapiens) (Q9Y6E0 whole entry, looked up): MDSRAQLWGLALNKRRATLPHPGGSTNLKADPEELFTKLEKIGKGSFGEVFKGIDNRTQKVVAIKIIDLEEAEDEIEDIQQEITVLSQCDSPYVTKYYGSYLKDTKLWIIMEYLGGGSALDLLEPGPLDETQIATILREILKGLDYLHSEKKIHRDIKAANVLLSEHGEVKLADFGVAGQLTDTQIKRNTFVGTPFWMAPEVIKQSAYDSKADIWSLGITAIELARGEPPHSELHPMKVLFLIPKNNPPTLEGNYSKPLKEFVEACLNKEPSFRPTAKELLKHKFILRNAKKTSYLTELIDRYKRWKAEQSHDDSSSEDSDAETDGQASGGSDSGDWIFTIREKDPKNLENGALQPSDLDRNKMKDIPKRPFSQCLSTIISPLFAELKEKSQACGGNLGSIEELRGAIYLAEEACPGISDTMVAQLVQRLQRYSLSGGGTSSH

[26] = target: Receptor tyrosine-protein kinase erbB-4 (Homo sapiens) (UniProt Q15303); test: Inhibition of ErbB4 (unknown origin) at 1 uM relative to control
Sequence of Receptor tyrosine-protein kinase erbB-4 (Homo sapiens) (Q15303 whole entry): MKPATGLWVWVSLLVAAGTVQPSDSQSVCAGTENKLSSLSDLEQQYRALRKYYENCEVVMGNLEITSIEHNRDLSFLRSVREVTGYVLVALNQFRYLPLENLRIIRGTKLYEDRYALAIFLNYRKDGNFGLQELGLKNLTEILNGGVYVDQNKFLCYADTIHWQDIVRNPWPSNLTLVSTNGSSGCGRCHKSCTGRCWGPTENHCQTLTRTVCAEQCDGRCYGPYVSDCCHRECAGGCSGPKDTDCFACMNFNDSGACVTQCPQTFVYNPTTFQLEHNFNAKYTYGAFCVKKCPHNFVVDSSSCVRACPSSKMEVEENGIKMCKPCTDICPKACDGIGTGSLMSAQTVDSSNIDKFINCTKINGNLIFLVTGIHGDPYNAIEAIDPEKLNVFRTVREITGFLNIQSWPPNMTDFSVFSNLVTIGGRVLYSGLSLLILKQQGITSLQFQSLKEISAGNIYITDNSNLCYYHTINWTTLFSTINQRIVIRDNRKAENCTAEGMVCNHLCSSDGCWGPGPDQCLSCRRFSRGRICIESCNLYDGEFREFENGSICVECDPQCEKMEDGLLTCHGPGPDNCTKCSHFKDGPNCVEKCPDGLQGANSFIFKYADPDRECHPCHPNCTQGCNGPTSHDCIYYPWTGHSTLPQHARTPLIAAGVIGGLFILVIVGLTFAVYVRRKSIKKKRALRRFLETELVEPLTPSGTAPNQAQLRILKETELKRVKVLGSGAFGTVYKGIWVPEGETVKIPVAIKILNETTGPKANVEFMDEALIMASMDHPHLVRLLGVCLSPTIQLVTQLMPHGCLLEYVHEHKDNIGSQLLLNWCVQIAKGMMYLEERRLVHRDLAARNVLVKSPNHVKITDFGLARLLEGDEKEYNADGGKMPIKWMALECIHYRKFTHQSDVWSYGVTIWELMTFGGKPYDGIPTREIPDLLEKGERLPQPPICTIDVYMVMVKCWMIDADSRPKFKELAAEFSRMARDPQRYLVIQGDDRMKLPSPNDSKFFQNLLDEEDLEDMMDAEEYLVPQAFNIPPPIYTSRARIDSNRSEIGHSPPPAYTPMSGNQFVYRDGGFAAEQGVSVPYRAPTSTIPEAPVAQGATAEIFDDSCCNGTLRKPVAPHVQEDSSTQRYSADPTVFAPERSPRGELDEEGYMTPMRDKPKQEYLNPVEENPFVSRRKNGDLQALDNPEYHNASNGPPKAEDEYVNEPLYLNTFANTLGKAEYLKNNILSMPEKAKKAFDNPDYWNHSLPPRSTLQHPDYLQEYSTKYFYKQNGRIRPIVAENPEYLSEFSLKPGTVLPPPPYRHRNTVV

[27] = target: Serine/threonine-protein kinase Nek6 (Homo sapiens) (UniProt Q9HC98); test: Inhibition of NEK6 (unknown origin) at 1 uM relative to control
Sequence of Serine/threonine-protein kinase Nek6 (Homo sapiens) (Q9HC98 whole entry): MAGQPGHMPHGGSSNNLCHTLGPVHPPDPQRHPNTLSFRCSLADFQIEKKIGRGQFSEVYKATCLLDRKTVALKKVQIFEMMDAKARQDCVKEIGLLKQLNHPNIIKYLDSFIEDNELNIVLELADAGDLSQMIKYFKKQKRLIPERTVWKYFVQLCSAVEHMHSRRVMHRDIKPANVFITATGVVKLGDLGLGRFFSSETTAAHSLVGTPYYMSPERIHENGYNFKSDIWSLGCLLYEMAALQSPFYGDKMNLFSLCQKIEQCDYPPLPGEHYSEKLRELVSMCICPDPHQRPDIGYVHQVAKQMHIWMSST

[28] = target: Ribosomal protein S6 kinase alpha-3 (Homo sapiens) (UniProt P51812); test: Inhibition of Rsk2 (unknown origin) at 1 uM relative to control
Mus musculus [29] = test: Antiarthritic activity against collagen-induced arthritis DBA/1J mouse model assessed as KC/GRO level in serum at 50 mg/kg, po measured for 4 hrs by luminex analysis (reference value: 73.6 +/- 18.6 ng/ml); type: functional
[30] = target: Serine/threonine-protein kinase Sgk1 (Homo sapiens) (UniProt O00141); test: Inhibition of SGK (unknown origin) at 1 uM relative to control
[31] = target: Tyrosine-protein kinase ABL2 (Homo sapiens) (UniProt P42684); test: Inhibition of Arg (unknown origin) at 1 uM relative to control
[32] = target: Activated CDC42 kinase 1 (Homo sapiens) (UniProt Q07912); test: Inhibition of ACK1 (unknown origin) at 1 uM relative to control
[33] = Tmax in CD-1 mouse at 5 mg/kg, po measured upto 24 hrs by LC-MS analysis; type: ADME, organism-based; conditions: in vivo
RPMI-8226 [34] = test: Inhibition of human […] cell differentiation assessed as effect on IL-4 mRNA expression by RT-PCR analysis; type: functional, cell-based; conditions: dose 0.1-10 µM
[35] = target: Tyrosine-protein kinase Fyn (Homo sapiens) (UniProt P06241); test: Inhibition of Fyn (unknown origin) at 1 uM relative to control
Sequence of Tyrosine-protein kinase Fyn (Homo sapiens) (P06241 2-537 limits assumed): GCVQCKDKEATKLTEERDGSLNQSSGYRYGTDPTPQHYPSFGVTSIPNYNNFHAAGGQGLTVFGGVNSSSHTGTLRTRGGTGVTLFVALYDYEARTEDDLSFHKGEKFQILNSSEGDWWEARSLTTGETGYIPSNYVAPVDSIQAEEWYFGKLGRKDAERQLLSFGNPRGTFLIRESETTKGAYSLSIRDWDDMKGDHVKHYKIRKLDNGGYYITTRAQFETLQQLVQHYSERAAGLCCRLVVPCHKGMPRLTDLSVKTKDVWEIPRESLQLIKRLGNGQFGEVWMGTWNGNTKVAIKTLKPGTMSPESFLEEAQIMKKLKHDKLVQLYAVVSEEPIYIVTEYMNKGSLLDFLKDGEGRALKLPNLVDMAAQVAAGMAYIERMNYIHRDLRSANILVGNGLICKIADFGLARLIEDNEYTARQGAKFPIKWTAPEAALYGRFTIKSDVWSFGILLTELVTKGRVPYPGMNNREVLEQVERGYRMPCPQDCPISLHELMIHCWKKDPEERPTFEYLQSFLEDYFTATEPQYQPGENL

[36] = target: Dual specificity mitogen-activated protein kinase kinase 6 (Homo sapiens) (UniProt P52564); test: Inhibition of MKK6 (unknown origin) at 1 uM relative to control
[37] = target: Serine/threonine-protein kinase haspin (Homo sapiens) (UniProt Q8TF76); test: Inhibition of Haspin (unknown origin) at 1 uM relative to control
[38] = target: Muscle, skeletal receptor tyrosine-protein kinase (Homo sapiens) (UniProt O15146); test: Inhibition of MuSK (unknown origin) at 1 uM relative to control
[39] = Cmax in CD-1 mouse at 5 mg/kg, po measured upto 24 hrs by LC-MS analysis; type: ADME, organism-based; conditions: in vivo

- IC50 [1]: 338 nM
- half-life [2]: 2.5 h
- inhibition [3]: -4%
- inhibition [4]: -4%
- Tmax [5]: 2.2 h
- half-life [6]: 3.9 h
- inhibition [7]: 28%
- inhibition [10]: -5%
- inhibition (Homo sapiens): -3%
- inhibition [14]: 2%
- AUC [15]: 347 ng·h/mL
- inhibition [16]: -10%
- clearance [17]: 48.3 mL/min/kg
- IC50 [18]: 1330 nM
- inhibition [19]: -1%
- inhibition [21]: -2%
- inhibition [22]: -8%
- IC50 [23]: 1270 nM
- inhibition [24]: -9%
- inhibition [25]: 0%
- inhibition [26]: -5%
- inhibition [27]: -4%
- inhibition [28]: 1%
- inhibition [30]: 7%
- inhibition [31]: 14%
- inhibition [32]: 17%
- Tmax [33]: 0.5 h
- inhibition [35]: 0%
- inhibition [36]: -6%
- inhibition [37]: -6%
- inhibition [38]: -3%
- Cmax [39]: 920 ng/mL
Structure (SMILES): O=C(Nc1nc2cccc(-c3ccc(CN4CCS(=O)(=O)CC4)cc3)n2n1)C1CC1 [FILGOTINIB]
- Activity (Mus musculus [8]): Active
- Activity (Mus musculus [9]): Active
- Activity (Rattus norvegicus): Dose-Dependent Effect
- Activity (Mus musculus [11]): Active
- Activity (Mus musculus [12]): 372.4 ng/mL
- inhibition (RPMI-8226 [13]): Active
- Activity (Mus musculus [20]): 153.8 ng/mL
- Activity (Mus musculus [29]): 33.6 ng/mL
- inhibition (RPMI-8226 [34]): Dose-Dependent Effect
